Laboratory results from patent publication US20120101153A1, “ROCAGLAOL DERIVATIVES AS CARDIOPROTECTANT AGENTS AND AS ANTINEOPLASTIC AGENTS” (Universite De Strasbourg, priority 2008, published 2012).
pIC50: −log10 of the molar value. Like-named read-outs stand apart in the source and are kept apart here.

Legend:
[1] = tested on: MCF7 (breast adenocarcinoma); test: MTS assay, inhibition of cell proliferation, MCF7; type: cell-based; settings: Homo sapiens, read-out: Inhibition of cell proliferation (IC50)
Text: (§1) The medium was changed every 2-3 days.

[2] = tested on: Resistant MCF7 (MCF7R) cells; test: MTS assay, inhibition of cell proliferation, MCF7R; type: cell-based; settings: Homo sapiens, 72 h
Text: as §1

[3] = tested on: HCT15 (colon adenocarcinoma); test: MTS assay, inhibition of cell proliferation, HCT15; type: cell-based; settings: Homo sapiens, read-out: Inhibition of cell proliferation (IC50)
Text: as §1

HepG2 (hepatocarcinoma) = test: MTS assay, inhibition of cell proliferation, HepG2; type: cell-based; settings: Homo sapiens, read-out: Inhibition of cell proliferation (IC50)
Experimental: Experiments were performed in duplicate (n=3).

[4] = tested on: KB (epidermoid carcinoma); test: MTS assay, inhibition of cell proliferation, KB; settings: Homo sapiens
Experimental: The human cell lines KB (epidermoid carcinoma) and HepG2 (hepatocarcinoma) were obtained from ECACC (Salisbury, UK) and grown in D-MEM medium supplemented with 10% fetal calf serum, in the presence of penicilline, streptomycine and fungizone in 75 cm^2 flask under 5% CO2.
(§4) Cells were plated in 96-well tissue culture plates in 200 μl medium and cultured during 24 h before to be treated with compounds dissolved in DMSO (compound concentrations at a range of 0.5 nM to 10 μM) using a Biomek 2000 or 3000 (Beckman). Controls received the same volume of DMSO (1% final volume). After a 72 h exposure, MTS reagent (Promega) was added and incubated for 3 h at 37° C. The absorbance was then monitored at 490 nm and results were expressed as the value [1-(OD490 treated/OD490 control)×100] corresponding to the percentage of inhibition of cell proliferation.

[5] = tested on: HL60 (promyeocytic leukaemia); test: MTS assay, inhibition of cell proliferation, HL60; settings: Homo sapiens
Experimental: (§5) The human cell lines HL60 (promyeocytic leukaemia), MDA435 (breast ductal carcinoma; ATCC reference HBT129) and MDA231 (breast adenocarcinoma; ATCC reference HBT26) were obtained from ATCC. […] SK-OV3 cells (or OV3, ATCC reference HTB77) were kindly provided by NCI (Frederick, Md.).
(§6) The cell lines HCT116, HCT15, MCF7, MDA435, MDA231, PC3, OV3, HL60R and HL60 were grown in RPMI medium, in particular supplemented with 10% fetal calf serum, in the presence of penicillin, streptomycin and fungizone in 75 cm^2 flask under 5% CO2. […] The medium was changed every 2-3 days.
as §4

[6] = tested on: HCT116 (colon adenocarcinoma); test: MTS assay, inhibition of cell proliferation, HCT116; settings: Homo sapiens
Experimental: (§7) The human cell lines HCT116 (colon adenocarcinoma), PC3 (prostate adenocarcinoma) and HCT15 (colon adenocarcinoma) were obtained from ECACC (Wiltshire, UK).
(§8) The cell lines HCT116, HCT15, MCF7, MDA435, MDA231, PC3, OV3, HL60R and HL60 were grown in RPMI medium, in particular supplemented with 10% fetal calf serum, in the presence of penicillin, streptomycin and fungizone in 75 cm^2 flask under 5% CO2.
as §4

H9c2 cardiomyocytes [7] = settings: H9c2
Experimental: as §1
(§2) H9c2 cells were plated for 24 h in 100 mm Petri dishes at 0,7×10^4 cells/cm^2. Next, the cells were washed and cultured for 12 h in glucose-free medium (Gibco, DMEM w-L-glutamine, w/o D-glucose, sodium pyruvate) supplemented with only 1% fetal calf serum. […] Cells were washed, and subsequently FACS analyses were performed.
(§3) Apoptosis was analysed by fluorescence-activated cell sorting analysis (FACS-Calibur, Becton-Dickinson Biosciences). 0,5×10^6 cells were harvested, washed with Annexin Binding Buffer (0,01 M HEPES, 0,14 M NaCl, 2,5 mM CaCl2) and labeled with annexin V (dilution 1:50) and propidium iodide (6,7 μg/ml). All assays were performed at least in triplicate, and the results were analyzed by BD Cell Quest Pro software (Becton-Dickinson Biosciences, Le Pont De Claix, France).

mice = test: In vivo cardioprotection against doxorubicin in mice
Experimental: Administration of FL3 (0.1 mg/kg i.p., 2×/day for 4 days) protected mice from the cardiotoxicity induced by doxorubicine (20 mg/kg i.p.): they observed a 70% survival rate for the mice that received FL3. The survival rate for the mouse who received the vehicle was only 30% (see Table 3).

H9c2 cardiomyocytes [8] = tested on: H9c2 cardiomyocytes
Experimental: as §2, §3

SK-OV3 cells (OV3) = test: MTS assay, cytotoxicity, OV3; settings: Homo sapiens, SK-OV-3, read-out: Cytotoxicity (IC50)
Experimental: as §5, §6, §4

[9] = tested on: PC3 (prostate adenocarcinoma); test: MTS assay, cytotoxicity, PC3; settings: Homo sapiens, read-out: Cytotoxicity (IC50)
Experimental: as §7, §8, §4

[10] = tested on: HL60R (resistant HL60 cells); test: MTS assay, cytotoxicity, HL60R; settings: Homo sapiens, read-out: Cytotoxicity (IC50)
Experimental: as §8, §4

[11] = tested on: MDA435 (breast ductal carcinoma); test: MTS assay, cytotoxicity, MDA435; settings: Homo sapiens, MDA435, read-out: Cytotoxicity (IC50)
Experimental: as §5, §6, §4

[12] = tested on: MDA231 (breast adenocarcinoma); test: MTS assay, cytotoxicity, MDA231; settings: Homo sapiens, MDA-MB-231, read-out: Cytotoxicity (IC50)
Experimental: as §5, §6, §4

[13] = cumulative dose of doxorubicin 700 mg/m^2; cited from earlier work
[14] = MTS, Table 1, read-out: Inhibition of cell proliferation (IC50)
[15] = HCT-15, HCT15, MTS, 72 h, Table 1
[16] = 72 h, read-out: Inhibition of cell proliferation (IC50)
[17] = HL-60, 72 h, read-out: Inhibition of cell proliferation (IC50)
[18] = HCT-116, 72 h, read-out: Inhibition of cell proliferation (IC50)
[19] = HL-60, read-out: Cytotoxicity (IC50)

SMILES	pIC50 ([1]; MCF7, MTS, 72 h, Table 1)	pIC50 [2, 14]	pIC50 [3, 15]	pIC50 (HepG2 (hepatocarcinoma); HepG2, MTS, 72 h, Table 1)	pIC50 [4, 16]	pIC50 [5, 17]	pIC50 [6, 18]	pIC50 (SK-OV3 cells (OV3))	pIC50 [9]	pIC50 [11]	pIC50 [12]	pIC50 [5, 19]	further results
COc1ccc([C@@]23Oc4cc(OC)cc(OC)c4[C@]2(O)[C@H](O)C[C@H]3c2ccccc2)cc1 (racemic) [FL1, rocaglaol]	8.40	8.40	8.22	7.15	8.70	8.52	8.22						
COc1cc(OC)c2c(c1)O[C@@]1(c3ccc(Br)cc3)[C@H](c3ccccc3)C[C@@H](O)[C@@]21O (racemic) [FL3, bromo-demethoxy-rocaglaol]					> 9.00	> 9.00	> 9.00	8.07	7.77	8.06	8.42	8.26	pIC50 ([1]; MCF7, 72 h): 9.00; pIC50 ([2]; read-out: Inhibition of cell proliferation (IC50)): > 9.00; pIC50 ([3]; HCT-15, 72 h): 9.00; pIC50 (HepG2 (hepatocarcinoma); HepG2, 72 h): 8.40; Diminution of the apoptosis induced by doxorubicin (H9c2 cardiomyocytes [7]; 1 nM FL3, 1 μM doxorubicin): 70%; Alleviation of the apoptosis induced by doxorubicin (H9c2 cardiomyocytes [7]; 50 nM FL3, 20 times superior concentration of doxorubicin): 61%; Concentration of maximum inhibition of doxorubicin-induced apoptosis (H9c2 cardiomyocytes [7]; FIG. 8B): 1 nM; Survival rate (mice; Doxorubicin (1 x, 20 mg/kg i.p.) + FL3 (8 x, 0.1 mg/kg i.p.)): 70%; Survival rate (mice; FL3 alone (8 x, 0.1 mg/kg i.p.)): 100%; Effect on KRIBB3-induced cytotoxicity (H9c2 cardiomyocytes [8]; co-treatment FL3 100 nM with KRIBB3 1 μM): significantly alleviated; Effect on KRIBB3 worsening of doxorubicin cytotoxicity (H9c2 cardiomyocytes [8]; doxorubicin, KRIBB3 and FL3 all together): reversed; pIC50 [10]: 8.35; pIC50 ([4]; read-out: Cytotoxicity (IC50)): 7.82; pIC50 ([6]; HCT-116, read-out: Cytotoxicity (IC50)): 8.12
COc1cccc2c1C(=O)c1c(O)c3c(c(O)c1C2=O)C[C@@](O)(C(=O)CO)C[C@@H]3O[C@H]1C[C@H](N)[C@H](O)[C@H](C)O1 [Doxorubicin, doxorubicin, reference compound]	7.92	7.24	7.09	6.62	9.00	7.89	8.22	7.39	6.73	8.46	10.33	7.52	Apoptosis induced (total apoptotic cells) (H9c2 cardiomyocytes [7]; 1 μM doxorubicin for 14 h): 32%; Survival rate (mice; Doxorubicin alone (1 x, 20 mg/kg i.p.)): 30%; Risk of developing congestive heart failure [13]: 48%
COc1ccc([C@@H]2C[C@@H](O)[C@@]3(O)c4c(OC)cc(OC)cc4O[C@@]23c2ccccc2)cc1 [FL4]	< 5.00	< 5.00	< 5.00	< 5.00	< 5.00	< 5.00	< 5.00						
CCc1cc(-c2oncc2-c2ccc(OC)cc2)c(O)cc1OC [KRIBB3, reference compound]													Cytotoxicity of KRIBB3 on cardiomyocytes (H9c2 cardiomyocytes [8]; KRIBB3 1 μM, 1 h): induced a cytotoxicity
